According to patent publication US6355799B1, “Substituted benzene compounds, process for their preparation, and herbicidal and defoliant compositions containing them” (ISK Americas Incorporated, priority 1997, dated 2002):

Assays:
Type in all cases: in vivo
[1] = system: barnyardgrass (Echinochloa crus-galli, ECHCG); test: Post-emerge test, greenhouse herbicide activity screening; conditions: rating scale 0-100 (0 no damage, 100 complete death), 14 days after application
Summary of the method: (§1)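 Each test used a mechanized track sprayer delivering 187 l/ha of acetone solution at 15–1000 g ai/ha. Post-emerge foliage at 2–3 leaves was treated with added 0.25% v/v non-ionic surfactant and bottom-watered only. Injury was assessed on day 14, where 100 means total kill.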

[2] = system: lambsquarters (Chenopodium album, CHEAL); test: as above; conditions: rating scale 0-100 (0 no damage, 100 complete death), 14 days after application
Summary of the method: as §1

[3] = system: velvetleaf (Abutilon theophrasti, ABUTH); test: as above; conditions: rating scale 0-100 (0 no damage, 100 complete death), 14 days after application
Summary of the method: as §1

[4] = system: johnsongrass (Sorghum halepense, SORHA); test: as above; conditions: rating scale 0-100 (0 no damage, 100 complete death), 14 days after application
Summary of the method: as §1

[5] = system: ivyleaf morningglory (Ipomoea hederacea, IPOHE); test: as above; conditions: rating scale 0-100 (0 no damage, 100 complete death), 14 days after application
Summary of the method: as §1

[6] = system: green foxtail (Setaria viridis, SETVI); test: as above; conditions: rating scale 0-100 (0 no damage, 100 complete death), 14 days after application
Summary of the method: as §1

[7] = system: redroot pigweed (Amaranthus retroflexus, AMARE); test: as above; conditions: rating scale 0-100 (0 no damage, 100 complete death), 14 days after application
Summary of the method: as §1

[8] = system: sicklepod (Cassia obtusifolia, CASOB); test: as above; conditions: rating scale 0-100 (0 no damage, 100 complete death), 14 days after application
Summary of the method: as §1

[9] = system: large crabgrass (Digitaria sanguinalis, DIGSA); test: as above; conditions: rating scale 0-100 (0 no damage, 100 complete death), 14 days after application
Summary of the method: as §1

[10] = system: upland rice (Oryza sp., var. Tebonnet, RICE); test: Pre-emerge test, crop safety; conditions: rating scale 0-100, 14 days after application
Summary of the method: (§2)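 Visual ratings on a 0-100 scale (0 no damage, 100 all plants dead) were taken at 14 days after treatment. Rates of 15-1000 g ai/ha in acetone, 187 l/ha, were sprayed onto soil one day after planting (pre-emerge) or onto 2-3 leaf plants with 0.25% v/v surfactant (post-emerge).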

[11] = system: field corn (Zea mays L., var. Dekalb 535, CORN); test: Pre-emerge test, crop safety; conditions: rating scale 0-100, 14 days after application
Summary of the method: as §2

[12] = system: upland rice (Oryza sp., var. Tebonnet, RICE); test: Post-emerge test, crop safety; conditions: rating scale 0-100 (0 no damage, 100 complete death), 14 days after application
Summary of the method: (§3)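 Compounds in acetone were track-sprayed at 187 l/ha, 15–1000 g ai/ha, onto sandy loam pots. Pre-emerge seeds were sown one day before spraying, with surface watering afterwards. Post-emerge plants were at the 2–3 leaf stage and sprayed with 0.25% v/v non-ionic surfactant. Injury was rated 0–100 at 14 days.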

[13] = system: field corn (Zea mays L., var. Dekalb 535, CORN); test: Post-emerge test, crop safety; conditions: rating scale 0-100 (0 no damage, 100 complete death), 14 days after application
Summary of the method: as §3

[14] = system: redroot pigweed (Amaranthus retroflexus, AMARE); test: Pre-emerge test, greenhouse herbicide activity screening; conditions: rating scale 0-100, 14 days after application
Summary of the method: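 Herbicidal damage is scored 0 (none) to 100 (complete plant death) two weeks after a simulated field spray. Rates span 15–1000 g ai/ha, delivered in acetone at 187 l/ha. For post-emergence treatments, plants have 2–3 leaves and the spray carries 0.25% v/v non-ionic surfactant.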

[15] = system: barnyardgrass (Echinochloa crus-galli, ECHCG); test: as above; conditions: rating scale 0-100, 14 days after application
Summary of the method: as §3

[16] = system: lambsquarters (Chenopodium album, CHEAL); test: as above; conditions: rating scale 0-100, 14 days after application
Summary of the method: as §3

[17] = system: velvetleaf (Abutilon theophrasti, ABUTH); test: as above; conditions: rating scale 0-100, 14 days after application
Summary of the method: as §3

[18] = system: johnsongrass (Sorghum halepense, SORHA); test: as above; conditions: rating scale 0-100, 14 days after application
Summary of the method: as §3

[19] = system: ivyleaf morningglory (Ipomoea hederacea, IPOHE); test: as above; conditions: rating scale 0-100, 14 days after application
Summary of the method: as §3

[20] = system: green foxtail (Setaria viridis, SETVI); test: as above; conditions: rating scale 0-100, 14 days after application
Summary of the method: as §3

[21] = system: sicklepod (Cassia obtusifolia, CASOB); test: as above; conditions: rating scale 0-100, 14 days after application
Summary of the method: as §3

[22] = system: large crabgrass (Digitaria sanguinalis, DIGSA); test: as above; conditions: rating scale 0-100, 14 days after application
Summary of the method: as §3

## COc1c(Cl)cc(F)c(-n2c(=O)cc(C(F)(F)F)n(C)c2=O)c1CC(Cl)C(=O)OCCOc1ccccc1 (single isomer, unassigned) [14-27]
[1]; Rate 63 g ai/ha
  Post-emerge Herbicidal Activity, phytotoxicity rating ECHCG: 99
[1]; Rate 250 g ai/ha
  Post-emerge Herbicidal Activity, phytotoxicity rating ECHCG: 100
[2]; Rate 63 g ai/ha
  Post-emerge Herbicidal Activity, phytotoxicity rating CHEAL: 90
[2]; Rate 250 g ai/ha
  Post-emerge Herbicidal Activity, phytotoxicity rating CHEAL: 100
[3]; Rate 63 g ai/ha
  Post-emerge Herbicidal Activity, phytotoxicity rating ABUTH: 70
[3]; Rate 250 g ai/ha
  Post-emerge Herbicidal Activity, phytotoxicity rating ABUTH: 80
[4]; Rate 63 g ai/ha
  Post-emerge Herbicidal Activity, phytotoxicity rating SORHA: 0
[4]; Rate 250 g ai/ha
  Post-emerge Herbicidal Activity, phytotoxicity rating SORHA: 10
[5]; Rate 63 g ai/ha
  Post-emerge Herbicidal Activity, phytotoxicity rating IPOHE: 70
[5]; Rate 250 g ai/ha
  Post-emerge Herbicidal Activity, phytotoxicity rating IPOHE: 50
[6]; Rate 63 g ai/ha
  Post-emerge Herbicidal Activity, phytotoxicity rating SETVI: 0
[6]; Rate 250 g ai/ha
  Post-emerge Herbicidal Activity, phytotoxicity rating SETVI: 20
[7]; Rate 63 g ai/ha
  Post-emerge Herbicidal Activity, phytotoxicity rating AMARE: 50
[7]; Rate 250 g ai/ha
  Post-emerge Herbicidal Activity, phytotoxicity rating AMARE: 90
[8]; Rate 63 g ai/ha
  Post-emerge Herbicidal Activity, phytotoxicity rating CASOB: 50
[8]; Rate 250 g ai/ha
  Post-emerge Herbicidal Activity, phytotoxicity rating CASOB: 30
[9]; Rate 63 g ai/ha
  Post-emerge Herbicidal Activity, phytotoxicity rating DIGSA: 70
[9]; Rate 250 g ai/ha
  Post-emerge Herbicidal Activity, phytotoxicity rating DIGSA: 95
[10]; 63 g ai/ha
  Pre-emerge phytotoxicity rating, crop damage RICE: 0
[10]; 250 g ai/ha
  Pre-emerge phytotoxicity rating, crop damage RICE: 0
[11]; 63 g ai/ha
  Pre-emerge phytotoxicity rating, crop damage CORN: 0
[11]; 250 g ai/ha
  Pre-emerge phytotoxicity rating, crop damage CORN: 0
[12]; Rate 63 g ai/ha
  Post-emerge phytotoxicity rating RICE (crop damage): 0
[12]; Rate 250 g ai/ha
  Post-emerge phytotoxicity rating RICE (crop damage): 0
[13]; Rate 63 g ai/ha
  Post-emerge phytotoxicity rating CORN (crop damage): 5
[13]; Rate 250 g ai/ha
  Post-emerge phytotoxicity rating CORN (crop damage): 10
[14]; 63 g ai/ha
  Pre-emerge herbicidal activity, phytotoxicity rating AMARE: 50
[14]; 250 g ai/ha
  Pre-emerge herbicidal activity, phytotoxicity rating AMARE: 100
[15]; 63 g ai/ha
  Pre-emerge herbicidal activity, phytotoxicity rating ECHCG: 0
[15]; 250 g ai/ha
  Pre-emerge herbicidal activity, phytotoxicity rating ECHCG: 0
[16]; 63 g ai/ha
  Pre-emerge herbicidal activity, phytotoxicity rating CHEAL: 0
[16]; 250 g ai/ha
  Pre-emerge herbicidal activity, phytotoxicity rating CHEAL: 90
[17]; 63 g ai/ha
  Pre-emerge herbicidal activity, phytotoxicity rating ABUTH: 0
[17]; 250 g ai/ha
  Pre-emerge herbicidal activity, phytotoxicity rating ABUTH: 30
[18]; 63 g ai/ha
  Pre-emerge herbicidal activity, phytotoxicity rating SORHA: 0
[18]; 250 g ai/ha
  Pre-emerge herbicidal activity, phytotoxicity rating SORHA: 0
[19]; 63 g ai/ha
  Pre-emerge herbicidal activity, phytotoxicity rating IPOHE: 0
[19]; 250 g ai/ha
  Pre-emerge herbicidal activity, phytotoxicity rating IPOHE: 0
[20]; 63 g ai/ha
  Pre-emerge herbicidal activity, phytotoxicity rating SETVI: 0
[20]; 250 g ai/ha
  Pre-emerge herbicidal activity, phytotoxicity rating SETVI: 0
[21]; 63 g ai/ha
  Pre-emerge herbicidal activity, phytotoxicity rating CASOB: 0
[21]; 250 g ai/ha
  Pre-emerge herbicidal activity, phytotoxicity rating CASOB: 0
[22]; 63 g ai/ha
  Pre-emerge herbicidal activity, phytotoxicity rating DIGSA: 0
[22]; 250 g ai/ha
  Pre-emerge herbicidal activity, phytotoxicity rating DIGSA: 90
